Organism: Rattus norvegicus
Assay: DrugMatrix - Regimen: Daily Repeat
Format: toxicity, organism-based, Sprague-Dawley
Set-up: regimen Daily Repeat, gender Male, age 6-8 weeks
Settings: in vivo, po, route oral GAVAGE, […]; for ABSOLUTE BASOPHIL / BASOPHIL / NUCLEATED RED BLOOD CELLS / ABSOLUTE EOSINOPHIL / ABSOLUTE LYMPHOCYTE / ABSOLUTE MONOCYTE / ABSOLUTE SEGMENTED NEUTROPHIL / EOSINOPHIL / ERYTHROCYTE COUNT / HEMATOCRIT / HEMOGLOBIN / LEUKOCYTE COUNT / LYMPHOCYTE / MEAN CORPUSCULAR HEMOGLOBIN / MEAN CORPUSCULAR VOLUME / MONOCYTE / NEUTROPHIL / PLATELET COUNT: tissue Blood; for ALANINE AMINOTRANSFERASE / ALBUMIN / ALKALINE PHOSPHATASE / ASPARTATE AMINOTRANSFERASE / BLOOD UREA NITROGEN / CARBON DIOXIDE / CHLORIDE / CHOLESTEROL / CREATINE PHOSPHOKINASE / CREATININE / GLUCOSE / LACTATE DEHYDROGENASE / LIPASE / PHOSPHORUS / SODIUM / TOTAL BILIRUBIN / TOTAL PROTEIN / URIC ACID: tissue Plasma
[1] = 0 mg/kg, 72 h, dose level Control, time 3 day
[2] = 0 mg/kg, 120 h, dose level Control, time 5 day
[3] = 25 mg/kg, 72 h, dose level Low, time 3 day
[4] = 25 mg/kg, 120 h, dose level Low, time 5 day

## CC(=O)N1CCN(c2ccc(OCC3COC(Cn4ccnc4)(c4ccc(Cl)cc4Cl)O3)cc2)CC1 (configuration not stated) [KETOCONAZOLE]
[1]
  ABSOLUTE BASOPHIL: 0 CELLS/uL
  BASOPHIL: 0%
  NUCLEATED RED BLOOD CELLS: 0 /100WBC
[2]
  ABSOLUTE BASOPHIL: 0 CELLS/uL
  BASOPHIL: 0%
[3]
  ABSOLUTE BASOPHIL: 0 CELLS/uL
  ABSOLUTE EOSINOPHIL: 0 CELLS/uL
  ABSOLUTE LYMPHOCYTE: 6183 CELLS/uL
  ABSOLUTE MONOCYTE: 155.33 CELLS/uL
  ABSOLUTE SEGMENTED NEUTROPHIL: 695 CELLS/uL
  BASOPHIL: 0%
  EOSINOPHIL: 0%
  ERYTHROCYTE COUNT: 5.13 x10E6/uL
  HEMATOCRIT: 33.13%
  HEMOGLOBIN: 12.97 G/DL
  LEUKOCYTE COUNT: 7.03 x10E3/uL
  LYMPHOCYTE: 87.67%
  MEAN CORPUSCULAR HEMOGLOBIN: 25.3 pg
  MEAN CORPUSCULAR VOLUME: 64.73 fL
  MONOCYTE: 2%
  NEUTROPHIL: 10.33%
  NUCLEATED RED BLOOD CELLS: 0 /100WBC
  PLATELET COUNT: 1118 x10E3/uL
  ALANINE AMINOTRANSFERASE: 90.33 u/L
  ALBUMIN: 3.83 G/DL
  ALKALINE PHOSPHATASE: 423.67 u/L
  ASPARTATE AMINOTRANSFERASE: 89.33 u/L
  BLOOD UREA NITROGEN: 12.67 mg/dL
  CARBON DIOXIDE: 39 mmol/L
  CHLORIDE: 95.33 MEQ/L
  CHOLESTEROL: 74 mg/dL
  CREATINE PHOSPHOKINASE: 308.67 u/L
  CREATININE: 0.15 mg/dL
  GLUCOSE: 163.33 mg/dL
  LACTATE DEHYDROGENASE: 69.33 u/L
  LIPASE: 10 u/L
  PHOSPHORUS: 9.63 mg/dL
  SODIUM: 136.67 MEQ/L
  TOTAL BILIRUBIN: 0.13 mg/dL
  TOTAL PROTEIN: 5.53 G/DL
  URIC ACID: 0.43 mg/dL
[4]
  ABSOLUTE BASOPHIL: 0 CELLS/uL
  ABSOLUTE EOSINOPHIL: 0 CELLS/uL
  ABSOLUTE LYMPHOCYTE: 8189 CELLS/uL
  ABSOLUTE MONOCYTE: 181 CELLS/uL
  ABSOLUTE SEGMENTED NEUTROPHIL: 1063.33 CELLS/uL
  BASOPHIL: 0%
  EOSINOPHIL: 0%
  ERYTHROCYTE COUNT: 5.6 x10E6/uL
  HEMATOCRIT: 34.17%
  HEMOGLOBIN: 13.47 G/DL
  LEUKOCYTE COUNT: 9.43 x10E3/uL
  LYMPHOCYTE: 86.67%
  MEAN CORPUSCULAR HEMOGLOBIN: 24.07 pg
  MEAN CORPUSCULAR VOLUME: 61.1 fL
  MONOCYTE: 2%
  NEUTROPHIL: 11.33%
  NUCLEATED RED BLOOD CELLS: 0 /100WBC
  PLATELET COUNT: 903 x10E3/uL
  ALANINE AMINOTRANSFERASE: 74 u/L
  ALBUMIN: 4.17 G/DL
  ALKALINE PHOSPHATASE: 365.33 u/L
  ASPARTATE AMINOTRANSFERASE: 92.33 u/L
  BLOOD UREA NITROGEN: 11.33 mg/dL
  CARBON DIOXIDE: 29.33 mmol/L
  CHLORIDE: 103.67 MEQ/L
  CHOLESTEROL: 75 mg/dL
  CREATINE PHOSPHOKINASE: 400.67 u/L
  CREATININE: 0.26 mg/dL
  GLUCOSE: 155 mg/dL
  LACTATE DEHYDROGENASE: 99.67 u/L
  LIPASE: 11.67 u/L
  PHOSPHORUS: 11.1 mg/dL
  SODIUM: 144.93 MEQ/L
  TOTAL BILIRUBIN: 0.2 mg/dL
  TOTAL PROTEIN: 5.93 G/DL
  URIC ACID: 0.8 mg/dL

Reference: ChEMBL document CHEMBL3885881, “DrugMatrix”
